Columns and labels:
streptavidin [1] = target: T1, streptavidin (Streptomyces avidinii, UniProt P22629); assay: iFRET detection of streptavidin with biotin-conjugated probes; type: binding; settings: UV irradiation at 280 nm
From the text: The results of detecting streptavidin using Compounds of Chemical Formulae XXV to XXVIII as probes for iFRET are shown in FIGS. 23 to 26.
(§1) As in FIG. 23 showing the result of using the compound of Chemical Formula XXV as a probe for iFRET, the probe itself emitted low fluorescence (blue line) at 430 nm by UV irradiation at 280 nm; the protein (streptavidin) emitted fluorescence (green line) at 340 nm by UV irradiation at 280 nm.
(§2) As in FIG. 24 showing the result of using the compound of Chemical Formula XXVI as a fluorescent probe, the probe itself emitted low fluorescence (blue line) at 460 nm by UV irradiation at 280 nm; the protein (streptavidin) emitted fluorescence (green line) at 340 nm by UV irradiation at 280. […] Further, it was confirmed that the fluorescence increasing rate at the above emission wavelength was 600% or more, indicating production of effective iFRET signals.
Because the compound of Chemical Formula XXVII emitted fluorescence at the longer wavelength than the known iFRET probe, signal-to-noise ratio is […] during real-time cell imaging, thereby providing more clear images.
(§3) In order to examine target specificity of the probe having Chemical Formula XXVIII, the probe was exposed to BSA to examine whether iFRET signals were produced by binding of the probe to BSA. […] Therefore, it was confirmed that the biotin-conjugated iFRET fluorescent probe of the present invention selectively binds to streptavidin to produce iFRET signals.

BSA = BSA (Bos taurus, UniProt P02769); assay: Target specificity of probe XXVIII against BSA; type: binding; settings: probe exposed to BSA
BSA, sequence (P02769 25-607): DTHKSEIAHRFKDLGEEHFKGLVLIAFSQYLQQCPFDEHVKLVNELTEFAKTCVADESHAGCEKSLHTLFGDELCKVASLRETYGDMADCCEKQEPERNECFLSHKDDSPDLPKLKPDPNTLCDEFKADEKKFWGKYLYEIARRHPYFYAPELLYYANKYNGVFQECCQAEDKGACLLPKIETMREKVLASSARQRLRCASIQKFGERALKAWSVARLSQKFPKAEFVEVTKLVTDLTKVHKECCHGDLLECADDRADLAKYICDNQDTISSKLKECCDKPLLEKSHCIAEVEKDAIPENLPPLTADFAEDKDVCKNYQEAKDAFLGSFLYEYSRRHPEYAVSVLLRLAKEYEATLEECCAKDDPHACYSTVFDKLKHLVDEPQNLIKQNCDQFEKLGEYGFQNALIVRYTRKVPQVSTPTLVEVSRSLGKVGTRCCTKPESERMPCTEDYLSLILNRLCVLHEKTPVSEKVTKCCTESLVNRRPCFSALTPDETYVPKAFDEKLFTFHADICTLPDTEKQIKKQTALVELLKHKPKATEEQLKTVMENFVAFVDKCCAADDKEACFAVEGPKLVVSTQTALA
From the text: as §3

[2] = Quantum yield measurement; type: physicochemical; settings: 0.1 M pH 10.0 phosphate buffer, standard 4-methyl-umbelliferone
Description: (§4) The quantum yield of each compound was measured in 0.1 M pH 10.0 phosphate buffer. 4-methyl-umbelliferone (ΦF 0.63) was used as a standard material, tryptophan (ΦF=0.12) was used as an FRET donor to calculate the quantum yield. FRET efficiency was calculated based on the results measured in PBS buffer at pH 7.4, and fluorescence was measured using an LS55 fluorescence spectrometer manufactured by Perkin Elmer.

streptavidin [3] = target: T1, streptavidin; assay: FRET efficiency and Forster distance of biotin-conjugated probes; type: binding; settings: between iFRET probe and streptavidin
Description: as §4

[4] = system: HSP90 (heat shock protein 90) protein; assay: iFRET detection of HSP90 with probe XXIV; type: binding
Description: Compound XXIV was dissolved in DMSO, and then diluted with distilled water to a final concentration of 2 μM. When Compound XXIV or the protein was present alone, no fluorescence signals were newly observed around 450 nm.
(§5) The right graph of FIG. 18 is the result of reexamining iFRET signals using Compound XXIV, purified HSP90 protein, and a control group BSA (bovine serum albumin). 2 μM Compound XXIV was used, and HSP90 protein and BSA protein were used at the final concentration of 200 nM. At this time, the used buffer was phosphate buffered saline (PBS; pH 7.4). As shown in the figure, iFRET signals result from compound XXIV and HSP90 protein which are selectively binding.
FIG. 19 is a graph showing iFRET signals detected by using HSP90 protein and Chemical Formula XXIV Selectively binding thereto.
(§6) As a control group, BSA (bovine serum albumin) was used.

[5] = target: BSA (bovine serum albumin) (Bos taurus, UniProt P02769); assay: iFRET control of probe XXIV with BSA; type: binding; settings: probe (2 μM) with BSA (200 nM), PBS pH 7.4
BSA (bovine serum albumin), sequence (P02769 25-607): as above
Description: as §5, §6

HSP90 protein = assay: Dissociation constant of iFRET probe and HSP90 (double reciprocal plot of fluorescence); type: binding; settings: probe concentration fixed, HSP90 at various concentrations
Description: FIG. 21 is the result of binding degree of the synthesized Chemical Formula XXIV and HSP90 protein. The core structure used in the synthesis of Chemical Formula XXIV is PU-H64 (J. Med. Chem. 2006, 49, 4953-4960), and this structure binds to HSP90. The iFRET probe used in this experiment is a structure in which a fluorescent nucleus is introduced into PU-H64. In order to examine the actual binding degree of this probe and HSP90 protein, analysis of enzyme kinetics was performed to confirm that its dissociation constant is approximately 160 nM. The concentration of Chemical Formula XXIV as the iFRET probe was fixed and HSP90 was reacted at various concentrations to measure emitted fluorescence intensity. Based on this measured values, the dissociation constant was calculated. The reciprocal of the HSP90 concentration and the reciprocal of the fluorescence value were plotted to calculate the dissociation constant.

[6] = Fluorescence of the iFRET probe alone; type: physicochemical
From the text: After excitation at 260, 280, 340, and 360 nm, the emitted fluorescence spectra were examined. […]
as §1
as §2, with “signals. […]” for “signals.”

T1 sequence (P22629 25-183): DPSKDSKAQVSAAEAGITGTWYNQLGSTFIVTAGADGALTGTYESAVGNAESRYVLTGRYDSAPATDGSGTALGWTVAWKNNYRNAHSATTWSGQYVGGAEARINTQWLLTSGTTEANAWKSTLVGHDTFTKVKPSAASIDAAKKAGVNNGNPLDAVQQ

| Structure (SMILES) | fluorescence / iFRET signal of mixture of probe and streptavidin (streptavidin [1]) | iFRET signals (BSA) | Quantum yield (ΦF) [2] | R0 (Fōrster distance) (streptavidin [3]) [nm] | iFRET signal around 450 nm ([4]; 2 μM probe with purified HSP90, DMSO diluted with distilled water) | fluorescence at 430 nm of mixture ([4]; mixture of probe and HSP90, excitation at 280 nm, versus HSP90 or probe alone) | iFRET signals [5] | Kd (HSP90 protein) [nM] | fluorescence emission wavelength of probe alone ([6]; excitation / UV irradiation at 280 nm) | fluorescence intensity on excitation at 340 nm compared to excitation at 280 nm ([6]; probe alone) |
| --- | --- | --- | --- | --- | --- | --- | --- | --- | --- | --- |
| CN(C)c1ccc2cc(/C=C/C(=O)NCCNC(=O)CCCC[C@@H]3SC[C@@H]4NC(=O)N[C@@H]43)c(=O)oc2c1 [Chemical Formula XXVIII, N-((E)-7-dimethylaminocoumarin-3-acryl)-N′-(biotinyl)ethylenediamide] | iFRET signals produced | no signals were observed | 0.55 | 2.102 |  |  |  |  |  |  |
| Nc1ncnc2c1nc(Sc1cc3c(cc1Br)OCO3)n2CCC(=O)NCCNc1cccc2ccccc12 [Chemical Formula XXIV, 3-(6-amino-8-(6-bromobenzo[1,3]-dioxole-5-ylthio)-9S-purin-9-yl)-N-(2-(naphthalene-1-ylamino)ethyl)propaneamide] |  |  |  |  | new fluorescence signals were observed | increased fluorescence | no iFRET signals | ~160 | approximately 430 nm | approximately 2 fold |
